Test results from patent US12391799B2, “Peptoid polymers and methods of use” (X-Therma, Inc., priority 2017, dated 2025).
Numbered stars: 1 amine (or outer) side, 2 acyl side, 3 side chain; on linkers, the order of the positions; unused ones are H or OH. Square brackets hold non-standard residues; d marks the D form. Peptide text beside a SMILES is read from it. X1 = CC(O)CN(CC(=O)[*:2])[*:1]; NPrGly = CCCNCC(=O)O; Sar = CNCC(=O)O

Tests used:
[1] = Crystallographic x-ray diffraction (XRD) ice crystal formation assay; type: physicochemical; details: 1 and 5 mg/mL peptoid, EG 15-30% (v/v)
Experimental: In order to increase the throughput of library analysis, a crystallographic x-ray diffraction (XRD) technique was used to evaluate ice crystal formation. For these experiments, the compounds named “Compound 2,” “Compound 8,” “Compound 10,” “Compound 11,” “Compound 12,” “Compound 13,” and “Compound 58” were tested. Compound 58 is similar to Compound 12, except that an arginine amino acid has been appended to the N-terminal end.
For these experiments, EG concentrations between 15% and 30% (v/v) were used. Typically, EG, DMSO, and other cryoprotectants are used during XRD sample analysis at concentrations of 35-40% (v/v) to vitrify solutions and avoid diffraction interference from ice crystals. Concentrations of 1 and 5 mg/mL of the peptoid and peptoid-peptide compounds were used. FIGS. 3A, 3B, and 3C illustrate exemplary XRD data under conditions of complete vitrification, partial vitrification with the presence of cubic ice, and freezing ([…]), respectively. FIG. 3D provides ice rings scores for a variety of EG concentrations and two concentrations of Compounds 2, 8, and 12.
“IceRing1” and “IceRing2” refer to ice formation scores, which range between 0 (no ice formation) and 15 (large ice formation).

[2] = Vitrification screening assay (critical EG concentration); type: physicochemical; details: for Critical Ethylene Glycol Concentration: lowest EG for complete vitrification of 20 μL sample, 5 mg/mL peptoid in formulation, liquid nitrogen immersion
Experimental: As another means of increasing the throughput of library analysis, a vitrification screening assay was performed to evaluate anti-icing efficacy. For these experiments the compounds named “Compound 11,” “Compound 12,” “Compound 25,” Compound 26,” “Compound 27,” “Compound 28,” “Compound 60,” “Compound 62,” “Compound 63,” “Compound 64,” “Compound 69,” “Compound 70,” “Compound 71,” “Compound 72,” “Compound 73,” “Compound 74,” “Compound 75,” “Compound 76,” “Compound 77,” “Compound 78,” “Compound 81,” “Compound 82,” “Compound 83,” “Compound 84,” and “Compound 85” were tested.
For these experiments, 20 μL samples were flash frozen by liquid immersion in liquid nitrogen. Ethylene glycol (EG) concentrations between 5% and 25% (v/v) were used. A concentration of 5 mg/mL of peptoid polymer compounds were used in formulation. Table 12 lists the lowest concentration of EG necessary to bring about complete vitrification of a 20 μL sample with peptoid polymer in formulation, referred to as the “critical EG concentration.” A sample of formulation without the presence of a peptoid polymer was only able to bring about vitrification at 20% or more EG. Peptoid polymers of interest were able to bring about vitrification within formulas containing EG when the concentration of EG was lower than 20%.

HEK293 cells = test: HEK293 survival after storage at −80° C. for 3 days (Alamar Blue); type: cell-based, human; details: 1% peptoid in XT Formula, HEK293 stored at −80° C. for 3 days, vs. XT Formula alone
Experimental: Several compounds were examined in XT Formula at 1% concentration (i.e., 1% peptoid polymer concentration) for their effects on the cryopreservation of HEK293 cells, an adherent cell line derived from human embryonic kidney cells. In particular, the effects of these compounds on the survival of HEK293 cells stored at −80° C. for 3 days were evaluated. An Alamar Blue assay was used to assess cell survival 1 day after stored cells were thawed. A 10% DMSO formula and DMEM cell media only were used as controls.

K562 cells [3] = test: Cell toxicity assay in K562 cell culture; type: cell-based; details: 24 hours at 37° C. and 5% CO2
Experimental: The cytotoxicity of several compounds were evaluated using a typical cell toxicity assay in K562 cell culture. […] As a positive control, some cells were incubated without any peptoid polymer (DMEM). For a negative control, cells were incubated with DMSO (DMEM+10% DMSO).

K562 cells [4] = test: K562 viability after storage at −20° C. for 3 days (Alamar Blue); type: cell-based; details: 1% peptoid in XT Formula, K562 stored at −20° C. for 3 days, vs. XT Formula alone
Experimental: Several compounds were examined in XT Formula at 1% concentration (i.e., 1% peptoid polymer concentration) for their ability to increase the viability of cells subjected to super-cooled storage. XT Formula contains HTK buffer, among other components. In particular, the effects of these compounds on the viability of K562 cells stored at −20° C. for 3 days were evaluated. An Alamar Blue assay was used to assess cell viability 7 days after stored cells were thawed.

HEK 293 cell line = test: Cell-based cytotoxicity assay (MTT); parameters: species or system human; details: serial dilutions in culture media, 37° C., about 3 to 5 days
Experimental: A Tecan Genesis Robotic Workstation was used to prepare solutions in 96- and 384-well plates. Solutions contained culture media, buffers, a cryoprotectant composition (Compound 12) or DMSO. Solutions were adjusted to the desired pH. Serial dilutions were performed to obtain solutions containing various concentrations of Compound 12 and DMSO. Control experiments were performed using only culture media.
For these experiments, cells were seeded at low density (i.e., 10% confluence), exposed to solutions containing Compound 12 or DMSO, and placed in a 37° C. incubator. The cells were allowed to grow until control cells that were treated only with empty vehicle approached 70% confluence (typically about 3 to 5 days). Assessment for compound cytotoxicity was via MTT assay.

Structure (SMILES) | Critical Ethylene Glycol Concentration [2] | cell survival 1 day after thaw (HEK293 cells) | cell viability 7 days after thaw (K562 cells [4]) | also measured
CCC(C)NCC(=O)N(CC(=O)N(CC(=O)N(CC(=O)N(CC(=O)N(CC(=O)N(CC(=O)N(CC(=O)N(CC(=O)N(CC(N)=O)CC(C)O)CC(C)O)CC(C)O)C(C)CC)CC(C)O)CC(C)O)CC(C)O)CC(C)O)CC(C)O (stereo not drawn) [Compound 8, Nsb-Nhp-Nhp-Nhp-Nhp-Nhp-Nsb-Nhp-Nhp-Nhp] |  |  |  | reduction of necessary EG concentration while preventing ice formation (XRD ice ring scores) [1]: significantly reduced necessary EG concentrations while preventing ice formation
CCC(C)N(CC(=O)N(CC(=O)N(CC(=O)N(CC(=O)N(CC(=O)N(CC(=O)N(CC(N)=O)CC(C)O)CC(C)O)C(C)CC)C(C)CC)CC(C)O)CC(C)O)C(=O)CN(C(=O)CN(CC(C)O)C(=O)CNCC(C)O)C(C)CC (centres unmarked) [Compound 11] | 15.0% (ν/ν) | improved cell survival compared to XT Formula alone |  | 
CNCC(=O)N(C)CC(=O)N(C)CC(=O)N(CC(=O)N(CC(=O)N(CC(=O)N(C)CC(=O)N(C)CC(=O)N(C)CC(=O)N(CC(N)=O)CC(C)O)CC(C)O)CC(C)O)CC(C)O (centres unmarked) [Compound 15] (H-[Sar][Sar][Sar][X1][X1][X1][Sar][Sar][Sar][X1]-NH2) |  |  |  | cytotoxicity (cell persistence) (K562 cells [3]; 1% concentration): persisted about as well as cell incubated in cell culture media alone (DMEM)
CCCNCC(=O)N(CCC)CC(=O)N(CC(=O)N(CC(=O)N(CCC)CC(=O)N(CCC)CC(=O)N(CC(=O)N(CC(=O)N(CCC)CC(=O)N(CCC)CC(N)=O)CC(C)O)CC(C)O)CC(C)O)CC(C)O (stereo not drawn) [Compound 27, Npr-Npr-Nhp-Nhp-Npr-Npr-Nhp-Nhp-Npr-Npr] (H-[NPrGly][NPrGly][X1][X1][NPrGly][NPrGly][X1][X1][NPrGly][NPrGly]-NH2) | 12.5% (ν/ν) | improved cell survival compared to XT Formula alone | improved cell viability compared to XT Formula alone | 
CCC(C)NCC(=O)N(CC(=O)N(CCOC)CC(=O)N(CCOC)CC(=O)N(CC(=O)N(CC(=O)N(CCOC)CC(=O)N(CCOC)CC(=O)N(CC(=O)N(CC(N)=O)C(C)CC)C(C)CC)C(C)CC)C(C)CC)C(C)CC (stereo not drawn) [Compound 62, Nsb-Nsb-Nmo-Nmo-Nsb-Nsb-Nmo-Nmo-Nsb-Nsb] | 12.5% (ν/ν) | improved cell survival compared to XT Formula alone | improved cell viability compared to XT Formula alone | EG required to permit vitrification ([2]; 20 μL sample, 5 mg/mL peptoid, formulation without peptoid needs 20% or more EG): required significantly less EG in order to permit vitrification; cytotoxicity (cell persistence) (K562 cells [3]; 1% concentration): persisted about as well as cell incubated in cell culture media alone (DMEM)
CNCC(=O)N(C)CC(=O)N(CC(=O)N(CC(=O)N(C)CC(=O)N(C)CC(=O)N(CC(=O)N(CC(=O)N(C)CC(=O)N(C)CC(N)=O)CC(C)O)CC(C)O)CC(C)O)CC(C)O (stereo not drawn) [Compound 64, Nme-Nme-Nhp-Nhp-Nme-Nme-Nhp-Nhp-Nme-Nme] (H-[Sar][Sar][X1][X1][Sar][Sar][X1][X1][Sar][Sar]-NH2) | 17.5% (ν/ν) | improved cell survival compared to XT Formula alone |  | 
CCC(C)NCC(=O)N(CC(=O)N(CCO)CC(=O)N(CCO)CC(=O)N(CC(=O)N(CC(=O)N(CCO)CC(=O)N(CCO)CC(=O)N(CC(=O)N(CC(N)=O)C(C)CC)C(C)CC)C(C)CC)C(C)CC)C(C)CC (stereo not drawn) [Compound 74, Nsb-Nsb-Nhe-Nhe-Nsb-Nsb-Nhe-Nhe-Nsb-Nsb] | 15.0% (ν/ν) |  | improved cell viability compared to XT Formula alone | 
CCC(C)NCC(=O)N(CC(=O)N(CC(=O)N(CC(=O)N(CC(=O)N(CC(=O)N(CC(=O)N(CC(=O)N(CC(=O)N(CC(N)=O)C(C)CC)C(C)CC)C(C)CO)C(C)CO)C(C)CC)C(C)CC)C(C)CO)C(C)CO)C(C)CC (stereo not drawn) [Compound 75, Nsb-Nsb-Nyp-Nyp-Nsb-Nsb-Nyp-Nyp-Nsb-Nsb] | 15.0% (ν/ν) | improved cell survival compared to XT Formula alone |  | 
C[S+](C)[O-] [DMSO, dimethyl sulfoxide, reference compound] |  |  |  | cytotoxicity (cell persistence) (K562 cells [3]; DMEM+10% DMSO): suffered significant toxicity; toxicity by MTT assay (HEK 293 cell line): did not allow for warm survival for an extended period of time at any concentration above 0.5% (v/v)
